In patent US11623002B2, “ALK polypeptides and methods of use thereof” (Elicio Therapeutics, Inc., priority 2016, dated 2023):
Entries after “also recorded” stand apart in the source; their conditions may differ.

What was measured:
[1] = system: CD4 T-cell; test: Intracellular cytokine staining (ICS), CD4 T-cell response to individual ALK polypeptides; type: cell-based; conditions: spleen and lymph node cells of mice immunized with SEQ ID NOs: 1-59 mixed with Freund's adjuvant; re-stimulated with individual ALK polypeptides; FIGS. 2A and 2B
Source text: (§1) To identify the immunodominant ALK polypeptides, mice were immunized with ALK polypeptides having the sequences of SEQ ID NOs: 1-59 listed in Table 1A mixed with Freund's adjuvant. Spleens and lymph nodes were then removed from immunized mice and assayed by intracellular cytokine staining (ICS).

[2] = system: CD8 T-cell; test: Intracellular cytokine staining (ICS), CD8 T-cell response to individual ALK polypeptides; type: cell-based; conditions: spleen and lymph node cells of mice immunized with SEQ ID NOs: 1-59 mixed with Freund's adjuvant; re-stimulated with individual ALK polypeptides; FIGS. 2C and 2D
Source text: as §1

Row | Sequence | CD4 T-cell responses (ICS) [1] | CD8 T-cell response (ICS) [2]
1 | KNCPGPVYRIMTQCW [SEQ ID NO: 52] | strongest CD4 T-cell responses | –
2 | PVYRIMTQCWQHQPE [SEQ ID NO: 53] | strongest CD4 T-cell responses | –
3 | PSPLQVAVRTLPEVC [SEQ ID NO: 10] | strongest CD4 T-cell responses | strongest CD8 T-cell response
4 | QNIVRCIGVSLQSLP [SEQ ID NO: 17] | strongest CD4 T-cell responses | –
5 | LTCPGPGRVAKIGDF [SEQ ID NO: 33] | – | strongest CD8 T-cell response; also recorded: CD8 T-cell (CD8) stimulating sequence
6 | LDFLMEALIISKFNH [SEQ ID NO: 14] | strongest CD4 T-cell responses | strongest CD8 T-cell response
7 | GDLKSFLRETRPRPS [SEQ ID NO: 22] | strongest CD4 T-cell responses | –
